Tests used:
[1] = Hydrogen peroxide scavenging (H2O2) assay; settings: phosphate buffer pH 7.4, 230 nm, 10 min; L-ascorbic acid standard; read-out: IC50 ± SEM (hydrogen peroxide assay)
Description: To compare and best evaluate the antioxidant potential of newly synthesized hesperitin derivatives, hydrogen peroxide assay was performed by the method described by Patel et al. with some modifications. The solution of H2O2 (100 mM) was prepared via the adding up different concentrations of synthesized derivatives ranging from 5 to 80 μg/mL to H2O2 solution (2 mL), prepared in 20 mM phosphate buffer of pH 7.4. Finally, the absorbance of H2O2 was measured at 230 nm after incubating for 10 min next to a blank reading of phosphate buffer without H2O2. For every measurement, a fresh reading of blank was taken to carry out background correction. For control sample containing H2O2 was scanned for absorbance at 230 nm. Results calculated as percentage of hydrogen peroxide inhibition was estimated by the formula [(Ab − At)/[…]] × 100, where Ab is the absorbance of the control and At is the absorbance of compounds/standard taken as L-ascorbic acid (5–80 μg/mL) are shown in Table 3.

human xanthine oxidase = target: T1, human xanthine oxidase (Homo sapiens, UniProt P47989); assay: In vitro xanthine oxidase inhibitory activity (XO activity assay kit, H2O2 read at 570 nm); format: biochemical; settings: 25 °C, xanthine substrate, allopurinol positive control; read-out: IC50 xanthine oxidase inhibition
T1 construct: purchased Sigma (sigma-aldrich.co, USA) MAK078
Description: For this research, the analytical grade chemicals necessary for synthesis and antioxidant activity were purchased from Hi-media Laboratories. The in vitro evaluation of the human xanthine oxidase inhibitory activity was performed by measuring hydrogen peroxide (H2O2) production from oxidation of […], utilizing the human xanthine oxidase assay kit (Sigma USA). The progress of reaction was observed through thin layer chromatography (TLC) on 0.25 mm precoated silica gel plates purchased from Merck, reaction spots were envisaged in iodine compartment and UV. Melting points were measured using a Sonar melting point apparatus and uncorrected. ^1H NMR and ^13C NMR spectra were documented in DMSO and deuterated CDCl3 respectively on Bruker Avance II 400 NMR spectrometer at the frequency of 400 MHz using tetramethylsilane standard (downfield) moreover chemical shifts were expressed in ppm (δ) using the residual solvent line as internal standard. Infrared (IR) spectra were recorded on Perkin Elmer FTIR spectrophotometer by utilizing KBr pellets system.
The method opted to evaluate the inhibitory potential of hesperitin derivatives was a modified protocol of Sigma, done by UV-spectrophotometric method by using xanthine oxidase activity assay kit purchased from sigma (MAK078, sigma-aldrich.co, USA). The colorimetric product obtained in the form of hydrogen peroxide generated during the oxidation of XO was determined by a coupled enzyme technique, measured at 570 nm in a 96-well plate, using the plate reader EPOCH™ “MICROPLATE READER (BIOTEK)”. One unit of XO is defined as the amount of enzyme that catalyzes the oxidation of xanthine substrate, yielding 1.0 µmol of uric acid and hydrogen peroxide per minute at 25 °C. Reagents used were 44 µL of xanthine oxidase assay buffer, 2 µL xanthine substrate solution and 2 µL of xanthine oxidase enzyme solution. All the solutions mentioned above were mixed to prepare reaction mixture. The different concentrations of synthesized derivatives having final volume 50 µL were prepared in dimethyl sulfoxide (DMSO) and added to 96 well plate. To each well 50 µL of reaction mix was added and mixed well. After 2–3 min initial measurement was taken. The plates were incubated at 25 °C taking measurements at every 5 min.

[2] = Antioxidant activity by DPPH method; settings: methanol, 37 °C, 517 nm; ascorbic acid positive control; read-out: IC50 ± SEM (DPPH assay)
Description: The antioxidant potential of hesperitin derivatives was performed by DPPH method evaluated in the form of IC50 estimated using the ELISA plate reader EPOCH™ “MICROPLATE READER (BIOTEK)”. This method opted for evaluation of free radical scavenging activity of DPPH was base on modified procedure described by Dhiman et al.. The tested compounds were prepared in methanolic solution and reacted with methanolic solution of DPPH at 37 °C. The reaction mixture was prepared in 96-well plate by adding 50 µL of sample, 50 µL […] of methanol and 50 µL of DPPH solution prepared in 0.1 mM in methanol. The mechanism of action of DPPH assay was based on the fact that DPPH radical get reduced during its reaction with an antioxidant compound and results in changes of color (from deep violet to light yellow). The absorbance was read at 517 nm for 30 min at an interval of 5 min of using ELISA microplate reader. The mixture of methanol (5.0 mL) and tested compounds (0.2 mL) serve as blank. Ascorbic acid served as positive control.

xanthine oxidase = assay: Enzyme kinetic analysis for XO-inhibitory activity (Michaelis-Menten, Lineweaver-Burk); format: biochemical, human; settings: without inhibitor 117.6
Description: Firstly Michaelis–Menten curve was plotted for the enzyme activity at different concentrations of HET4 against different concentration of xanthine substrate (Fig. 6).
Then double reciprocal plot (Lineweaver–Burk) analysis was done in the presence (0.25, 0.5, and 1.0 µM) and absence of HET4 from in vitro data generated during the oxidation of xanthine in presence of xanthine oxidase (Fig. 7). The x- and y-axis intercepts of the Lineweaver–Burk plot were utilized to calculate Km and Vmax values of HET4 at different concentrations (Table 2).

Sequence of xanthine oxidase (P47989 whole entry): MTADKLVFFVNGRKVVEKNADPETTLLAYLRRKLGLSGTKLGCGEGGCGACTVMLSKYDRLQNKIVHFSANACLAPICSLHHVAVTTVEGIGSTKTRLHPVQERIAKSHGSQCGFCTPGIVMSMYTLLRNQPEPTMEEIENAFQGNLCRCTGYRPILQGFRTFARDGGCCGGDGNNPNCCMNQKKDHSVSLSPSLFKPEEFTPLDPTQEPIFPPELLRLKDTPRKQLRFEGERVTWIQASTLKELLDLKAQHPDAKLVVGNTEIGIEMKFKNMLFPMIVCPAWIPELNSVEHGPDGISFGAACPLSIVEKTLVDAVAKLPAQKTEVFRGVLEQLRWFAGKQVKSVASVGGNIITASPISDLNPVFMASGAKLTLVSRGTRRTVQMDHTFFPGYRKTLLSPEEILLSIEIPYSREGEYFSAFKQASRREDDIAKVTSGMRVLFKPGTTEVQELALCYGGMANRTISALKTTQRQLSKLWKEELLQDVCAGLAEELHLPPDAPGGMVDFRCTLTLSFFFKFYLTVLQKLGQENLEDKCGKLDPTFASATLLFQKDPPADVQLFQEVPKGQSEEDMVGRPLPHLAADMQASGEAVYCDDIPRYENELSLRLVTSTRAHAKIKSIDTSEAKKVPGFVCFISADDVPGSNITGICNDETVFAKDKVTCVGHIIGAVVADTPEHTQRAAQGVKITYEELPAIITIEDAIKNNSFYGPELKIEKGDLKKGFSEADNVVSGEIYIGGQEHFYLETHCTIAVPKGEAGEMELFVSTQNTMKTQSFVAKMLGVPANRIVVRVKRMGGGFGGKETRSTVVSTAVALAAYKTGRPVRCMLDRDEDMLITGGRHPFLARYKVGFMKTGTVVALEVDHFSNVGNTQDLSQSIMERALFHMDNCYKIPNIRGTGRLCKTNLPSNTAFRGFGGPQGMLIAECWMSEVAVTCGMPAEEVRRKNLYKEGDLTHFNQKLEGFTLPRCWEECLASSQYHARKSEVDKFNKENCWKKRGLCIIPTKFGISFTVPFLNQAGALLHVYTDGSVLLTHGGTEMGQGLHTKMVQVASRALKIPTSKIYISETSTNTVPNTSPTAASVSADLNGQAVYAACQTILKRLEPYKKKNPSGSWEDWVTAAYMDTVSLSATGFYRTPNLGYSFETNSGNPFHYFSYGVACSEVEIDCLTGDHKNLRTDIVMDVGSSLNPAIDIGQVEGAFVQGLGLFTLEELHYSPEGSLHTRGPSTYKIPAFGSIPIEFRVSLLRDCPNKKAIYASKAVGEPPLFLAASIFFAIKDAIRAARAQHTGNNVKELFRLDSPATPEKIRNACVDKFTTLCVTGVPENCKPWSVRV
T1 sequence (P47989 whole entry): as above

Structure (SMILES) | IC50 [1] [µM] | IC50 (human xanthine oxidase) [µM] | IC50 [2] [µM] | Vmax of xanthine oxidase (xanthine oxidase; Conc. of HET4 0.25 µM) [µmol/min] | Vmax of xanthine oxidase (xanthine oxidase; Conc. of HET4 0.5 µM) [µmol/min] | Vmax of xanthine oxidase (xanthine oxidase; Conc. of HET4 1.0 µM) [µmol/min]
COc1ccc([C@@H]2CC(=O)c3c(OC)cc(OC(=O)c4ccccc4S)cc3O2)cc1OC [HET2] | 8.547 ± 0.06 | 23.2 ± 1.25 | 6.71 ± 0.15 |  |  | 
COc1ccc([C@@H]2CC(=O)c3c(OC)cc(OC(=O)C(O)c4ccccc4)cc3O2)cc1OC (some centres unmarked) [HET3] | 3.322 ± 0.01 | 12.9 ± 0.72 |  |  |  | 
COc1ccc([C@@H]2CC(=O)c3c(OC)cc(OC(=O)/C=C/c4ccc(O)c(O)c4)cc3O2)cc1OC [HET4] | 4.642 ± 0.03 | 9.09 | 1.633 ± 0.01 | 116.4 | 112.2 | 103.7

Results, then the molecule that gave them:

IC50 [1] [µM] | IC50 (human xanthine oxidase) [µM] | IC50 [2] [µM] | Vmax of xanthine oxidase (xanthine oxidase; Conc. of HET4 0.25 µM) [µmol/min] | Vmax of xanthine oxidase (xanthine oxidase; Conc. of HET4 0.5 µM) [µmol/min] | Vmax of xanthine oxidase (xanthine oxidase; Conc. of HET4 1.0 µM) [µmol/min] | Structure (SMILES)
6.37 ± 0.26 | 10.8 | 4.82 ± 0.06 |  |  |  | COc1ccc([C@@H]2CC(=O)c3c(OC)cc(OC(=O)c4cccnc4)cc3O2)cc1OC [HET5]
7.51 ± 0.02 | 11.7 | 7.11 ± 0.13 |  |  |  | COc1cc(C(=O)Oc2cc(OC)c3c(c2)O[C@H](c2ccc(OC)c(OC)c2)CC3=O)ccc1O [HET6]
14.43 ± 0.14 | 29.25 ± 0.12 | 12.9 ± 0.2 |  |  |  | COc1ccc([C@@H]2CC(=O)c3c(O)cc(O)cc3O2)cc1O [Hesperitin]
